Assay results reported in patent publication US10758517B2, “mPGES-1 inhibitor for the treatment of osteoarthritis pain” (Glenmark Pharmaceuticals S.A., priority 2017, dated 2020).

Key:
LPS-induced PGE2 release [1] = experiment: Ex vivo LPS-induced PGE2 release in whole blood, single dose crossover versus celecoxib (Example 1, Part 3); parameters: species or system human
Procedure: Part 2 was a single-dose, double-blind study in a single cohort of elderly subjects. Part 3 was an open-label, randomized, 2-period, single-dose, crossover study to compare effects of the highest tolerated Compound I dose and celecoxib on prostanoid metabolism in healthy adult subjects.
In Part 3, Compound I was administered at a dose of 1000 mg after fasting. All subjects received Compound I and all subjects received 400 mg celecoxib in a cross-over study design.
In Parts 1a and 3, whole blood samples were incubated and analyzed for lipopolysaccharide (LPS)-induced prostaglandin PGE2 release. In Part 3, urine samples were collected for analysis of prostanoid metabolites.
Summary statistics were presented for the PK, pharmacodynamic (PD) and safety data, as appropriate. PK parameters following single oral doses of Compound I were determined from the plasma concentrations of Compound I using non-compartmental procedures in WinNonlin Dose proportionality was assessed using a power model, with tmax analyzed using the Kruskal-Wallis test. The effect of food on PK was assessed at the 100 and 250 mg doses using a mixed effects model. The effect of age on PK was assessed for elderly (>65 years) versus non-elderly (<65 years) at the 250 mg dose level in Parts 1a and 2, using an analysis of variance (ANOVA) with age as a fixed effect. For PD analyses, percent decrease of ex vivo LPS-induced PGE2 release was calculated. For Part 3, urinary excretion of prostanoid metabolites was also evaluated. The data are presented as absolute, as well as creatinine normalized urinary biomarker amounts, along percent change from baseline over a definite time interval. The percent change from baseline in urinary biomarkers was assessed using an analysis of covariance (ANCOVA) model
Percent change in ex vivo LPS-induced PGE2 release in whole blood is the pharmacodynamic (PD) biomarker. The PGE2 levels in whole blood were estimated using the homogeneous time-resolved fluorescence method.
Concentrations below the limit of quantification were treated as ½ the lower limit of quantification for calculation.
Time points where unstimulated prostaglandin E2 (PGE2) concentration was more than 3 times greater than the mean unstimulated PGE2 and equal to or greater than ½ baseline value for an individual subject were not included in the calculation of % inhibition.

LPS-induced PGE2 release [2] = experiment: Ex vivo LPS-induced PGE2 release in whole blood, multiple oral doses for 28 days (Example 2, Part 1); parameters: species or system human; details: healthy subjects
Procedure: Part 1 consisted of a MAD, double-blind, sequential-group study in healthy subjects. Twenty-four adult male and female subjects were recruited into 3 cohorts. Subjects were enrolled in a sequential manner in cohorts of 8, each randomized in a ratio of 6:2, to receive Compound I or placebo, respectively, for a duration of 28 days. Three dose levels of Compound I (25, 75 and 130 mg) were studied in Cohorts A, B and C, respectively. For each cohort in Part 1, the planned Compound I, qd dosing occurred in the fasted state in the morning on Days 1 to 28, both inclusive. Subjects in each cohort started dosing on the same day, with no less than 5 minutes dose interval between subjects on Day 1.
Concentrations below the limit of quantification were treated as ½ the lower limit of quantification for subsequent calculations.
Time points where unstimulated PGE2 levels were 3 times greater than the mean of unstimulated PGE2 and greater than or equal to half of the baseline for a particular subject were not included in the calculation of these parameters.
Baseline is the mean of Day −1 and pre-dose LPS stimulated PGE2.
Abbreviations: CI=confidence interval; EAUC0-24h=area under the effect-time curve from time zero to 24 hours postdose; Eavg0-24h=the average PGE2 inhibition over 24 hours; Epeak=maximum effect; ETmax=time to reach maximum effect; LS=least squares; N=number of subjects; PGE2=prostaglandin E2; qd=once daily.
^a Median, median difference from placebo and approximate 95% CI.

[3] = Compound I 1000 mg versus celecoxib 400 mg, single oral doses, fasted
[4] = single oral dose 1000 mg, fasted healthy subjects

SMILES: CC(C)(C)C(=O)NCc1ccc(Cl)c(-c2nn(-c3ccc(C(F)(F)F)cc3)c(=O)[nH]2)c1 [Compound I, N-(4-chloro-3-(5-oxo-1-(4-(trifluoromethyl)phenyl)-4,5-dihydro-1H-1,2,4-triazol-3-yl)benzyl)pivalamide]
- EAUC0-24 h, Difference in LS mean versus celecoxib (LPS-induced PGE2 release [1]; [3]): 7.89 % · h
- EAUC0-336 h, Difference in LS mean versus celecoxib (LPS-induced PGE2 release [1]; [3]): 19024 % · h
- ETmax, Median difference versus celecoxib (LPS-induced PGE2 release [1]; [3]): 6.00 h
- Epeak, Difference in LS mean versus celecoxib (LPS-induced PGE2 release [1]; [3]): −1.87%
- EAUC0-24 h, LS mean (LPS-induced PGE2 release [1]; [4]): 1428 % · h
- EAUC0-336 h, LS mean (LPS-induced PGE2 release [1]; [4]): 8866 % · h
- ETmax (time to reach maximum effect), Median (LPS-induced PGE2 release [1]; [4]): 12.0 h
- Epeak (maximum % inhibition), LS mean (LPS-induced PGE2 release [1]; [4]): 87.2%
- inhibition of LPS-induced PGE2 concentration (LPS-induced PGE2 release [1]; single oral dose 1000 mg, maintained for at least 168 hours post-dose): approximately 50%
- EAUC0-24 h, Difference in LS means (Compound I − placebo) (LPS-induced PGE2 release [2]; Day 1, 25 mg qd): 1225 % · h
- EAUC0-24 h, LS means (LPS-induced PGE2 release [2]; Day 1, 25 mg qd): 1562 % · h
- ETmax (time to reach maximum effect), Median (LPS-induced PGE2 release [2]; Day 1, 25 mg qd): 6.00 h
- ETmax, median difference from placebo (LPS-induced PGE2 release [2]; Day 1, 25 mg qd): -6.00 h
- Eavg0-24 h, Difference in LS means (Compound I − placebo) (LPS-induced PGE2 release [2]; Day 1, 25 mg qd): 51.6%
- Epeak, Difference in LS means (Compound I − placebo) (LPS-induced PGE2 release [2]; Day 1, 25 mg qd): 35.0%
- EAUC0-24 h, Difference in LS means (Compound I − placebo) (LPS-induced PGE2 release [2]; Day 1, 75 mg qd): 1218 % · h
- EAUC0-24 h, LS means (LPS-induced PGE2 release [2]; Day 1, 75 mg qd): 1555 % · h
- ETmax (time to reach maximum effect), Median (LPS-induced PGE2 release [2]; Day 1, 75 mg qd): 23.8 h
- ETmax, median difference from placebo (LPS-induced PGE2 release [2]; Day 1, 75 mg qd): 5.77 h
- Eavg0-24 h, Difference in LS means (Compound I − placebo) (LPS-induced PGE2 release [2]; Day 1, 75 mg qd): 51.2%
- Epeak, Difference in LS means (Compound I − placebo) (LPS-induced PGE2 release [2]; Day 1, 75 mg qd): 26.7%
- EAUC0-24 h, Difference in LS means (Compound I − placebo) (LPS-induced PGE2 release [2]; Day 1, 130 mg qd): 1032 % · h
- EAUC0-24 h, LS means (LPS-induced PGE2 release [2]; Day 1, 130 mg qd): 1369 % · h
- ETmax (time to reach maximum effect), Median (LPS-induced PGE2 release [2]; Day 1, 130 mg qd): 4.00 h
- ETmax, median difference from placebo (LPS-induced PGE2 release [2]; Day 1, 130 mg qd): -10.0 h
- Eavg0-24 h, Difference in LS means (Compound I − placebo) (LPS-induced PGE2 release [2]; Day 1, 130 mg qd): 43.5%
- Epeak, Difference in LS means (Compound I − placebo) (LPS-induced PGE2 release [2]; Day 1, 130 mg qd): 22.3%
- EAUC0-24 h, Difference in LS means (Compound I − placebo) (LPS-induced PGE2 release [2]; Day 10, 25 mg qd): 1461 % · h
- EAUC0-24 h, LS means (LPS-induced PGE2 release [2]; Day 10, 25 mg qd): 1443 % · h
- ETmax (time to reach maximum effect), Median (LPS-induced PGE2 release [2]; Day 10, 25 mg qd): 5.00 h
- ETmax, median difference from placebo (LPS-induced PGE2 release [2]; Day 10, 25 mg qd): -7.00 h
- Eavg0-24 h, Difference in LS means (Compound I − placebo) (LPS-induced PGE2 release [2]; Day 10, 25 mg qd): 61.3%
- Epeak, Difference in LS means (Compound I − placebo) (LPS-induced PGE2 release [2]; Day 10, 25 mg qd): 45.0%
- EAUC0-24 h, Difference in LS means (Compound I − placebo) (LPS-induced PGE2 release [2]; Day 10, 75 mg qd): 1560 % · h
- EAUC0-24 h, LS means (LPS-induced PGE2 release [2]; Day 10, 75 mg qd): 1542 % · h
- ETmax (time to reach maximum effect), Median (LPS-induced PGE2 release [2]; Day 10, 75 mg qd): 12.0 h
- ETmax, median difference from placebo (LPS-induced PGE2 release [2]; Day 10, 75 mg qd): -0.0333 h
- Eavg0-24 h, Difference in LS means (Compound I − placebo) (LPS-induced PGE2 release [2]; Day 10, 75 mg qd): 65.4%
- Epeak, Difference in LS means (Compound I − placebo) (LPS-induced PGE2 release [2]; Day 10, 75 mg qd): 42.7%
- EAUC0-24 h, Difference in LS means (Compound I − placebo) (LPS-induced PGE2 release [2]; Day 10, 130 mg qd): 1392 % · h
- EAUC0-24 h, LS means (LPS-induced PGE2 release [2]; Day 10, 130 mg qd): 1374 % · h
